Experimental findings from patent publication US20260297085A1, “1 H-PYRROLO[2,3-B]PYRIDIN-4-YL]-2-OXOPYRROLIDINE-3-CARBONITRILE DERIVATIVES AS TYROSINE KINASE 2 (TYK2) INHIBITORS FOR THE TREATMENT OF INFLAMMATORY DISEASES” (BIOGEN MA INC., priority 2023, published 2026) are described below.

The target of test [1] is T1, human JAK1 kinase domain (JH1) (Homo sapiens, UniProt P23458).
T1 construct: recombinantly generated catalytic kinase (also known as JH1) domain of human JAK1, JAK2, JAK3 and TYK2
In words: JH1 biochemical assay for JAK1 (ADP-Glo kinase assay, recombinant JH1 catalytic domain, JAK3-342 peptide, 35 μM ATP). Conditions: JAK1 JH1, ADP-Glo. The method, boiled down: (§1)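 Luminescent ADP read-out after residual ATP depletion, 100 min reaction. Kinase domain concentrations were 4 nM (JAK1), 0.2 nM (JAK2), 0.3 nM (JAK3) and 2 nM (TYK2), each with 50 μM peptide. IC50 values came from 4-parameter logistic fits over 11 points, 3-fold steps, top 10 μM or 1 μM.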
A general note: In ADP-Glo the light output rises with the ADP produced.

In test [2] the target is T2, human JAK2 kinase domain (JH1) (Homo sapiens, UniProt O60674).
T2 construct: recombinantly generated catalytic kinase (also known as JH1) domain of human JAK1, JAK2, JAK3 and TYK2
The test is described as follows: JH1 biochemical assay for JAK2 (ADP-Glo kinase assay, recombinant JH1 catalytic domain, JAK3-974 peptide, 15 μM ATP). Conditions: JAK2 JH1, ADP-Glo. The method, boiled down:
as §1

The target in test [3] is Tyk2 kinase activity on STAT4 in NK92 cells (Homo sapiens, UniProt P29597). In words: pSTAT4 cell assay (MSD; NK92 cells, 30 ng/mL IL2 stimulation). It counts as cell-based. Conditions: 30 ng/mL IL2, 15 minutes. The method, boiled down:
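IC50 values come from 4-parameter logistic fits of normalized percent activity. Phospho-STAT was read by MSD (anti-STAT4 antibodies) in NK92 lysates after a 15 min stimulation with 30 ng/mL IL2. The serum-starved cells had been given compound for 1 h (10 points, four-fold, top 10 μM).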

Test [4] has as its target JAK1 kinase activity on STAT3 in TF1 cells (Homo sapiens, UniProt P23458). The test is described as follows: pSTAT3 cell assay (MSD; TF1 cells, 30 ng/mL IL-6 stimulation). In kind it is cell-based. The conditions noted are these: 30 ng/mL IL-6, 15 minutes. The method, boiled down: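 Serum starvation, 1 h compound (10 pt, 4-fold from 10 μM), IL-6 15 min, lysis. pSTAT3 read by MSD immunoassay, anti-STAT3 Abs. Normalized % activity vs log[cpd], 4-PL fit → IC50.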

The target in test [5] is T3, human TYK2 kinase domain (JH1) (Homo sapiens, UniProt P29597).
T3 construct: recombinantly generated catalytic kinase (also known as JH1) domain of human JAK1, JAK2, JAK3 and TYK2
T3 sequence (P29597 897-1176 limits assumed): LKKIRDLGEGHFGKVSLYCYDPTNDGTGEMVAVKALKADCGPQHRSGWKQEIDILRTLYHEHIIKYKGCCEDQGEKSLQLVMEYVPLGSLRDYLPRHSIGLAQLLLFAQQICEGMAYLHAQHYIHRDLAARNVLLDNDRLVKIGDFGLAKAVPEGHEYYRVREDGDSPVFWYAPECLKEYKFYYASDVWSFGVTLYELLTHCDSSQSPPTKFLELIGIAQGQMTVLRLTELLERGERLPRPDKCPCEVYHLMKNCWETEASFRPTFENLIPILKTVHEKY
In words: JH1 biochemical assay for TYK2 (ADP-Glo kinase assay, recombinant JH1 catalytic domain, JAK3-974 peptide, 10 μM ATP). Conditions: TYK2 JH1, ADP-Glo. The method, boiled down: as §1

The target of test [6] is JAK2 kinase activity on STAT5 in TF1 cells (Homo sapiens, UniProt O60674). In words: pSTAT5 cell assay (MSD; TF1 cells, 30 ng/mL IL-3 stimulation). In kind it is cell-based. The conditions noted are these: 30 ng/mL IL-3, 15 minutes. The essentials: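 IC50 from a 4-parameter logistic fit of normalized pSTAT5 signal, measured by MSD in lysates of TF1 cells. Cells were serum-starved, exposed to compound for 1 h (top concentration 10 μM, four-fold, 10 points), then given IL-3 at 30 ng/mL for 15 min.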

Test [7] has as its target T4, human JAK3 kinase domain (JH1) (Homo sapiens, UniProt P52333).
T4 construct: recombinantly generated catalytic kinase (also known as JH1) domain of human JAK1, JAK2, JAK3 and TYK2
In words: JH1 biochemical assay for JAK3 (ADP-Glo kinase assay, recombinant JH1 catalytic domain, JAK3-974 peptide, 4 μM ATP). Conditions: JAK3 JH1, ADP-Glo. The essentials: as §1

Usually IC50 stands for the midpoint of a concentration-inhibition curve.

Where a name gives a salt, the structure may show the parent alone.

Sequence of Tyk2 kinase activity on STAT4 in NK92 cells (P29597 whole entry): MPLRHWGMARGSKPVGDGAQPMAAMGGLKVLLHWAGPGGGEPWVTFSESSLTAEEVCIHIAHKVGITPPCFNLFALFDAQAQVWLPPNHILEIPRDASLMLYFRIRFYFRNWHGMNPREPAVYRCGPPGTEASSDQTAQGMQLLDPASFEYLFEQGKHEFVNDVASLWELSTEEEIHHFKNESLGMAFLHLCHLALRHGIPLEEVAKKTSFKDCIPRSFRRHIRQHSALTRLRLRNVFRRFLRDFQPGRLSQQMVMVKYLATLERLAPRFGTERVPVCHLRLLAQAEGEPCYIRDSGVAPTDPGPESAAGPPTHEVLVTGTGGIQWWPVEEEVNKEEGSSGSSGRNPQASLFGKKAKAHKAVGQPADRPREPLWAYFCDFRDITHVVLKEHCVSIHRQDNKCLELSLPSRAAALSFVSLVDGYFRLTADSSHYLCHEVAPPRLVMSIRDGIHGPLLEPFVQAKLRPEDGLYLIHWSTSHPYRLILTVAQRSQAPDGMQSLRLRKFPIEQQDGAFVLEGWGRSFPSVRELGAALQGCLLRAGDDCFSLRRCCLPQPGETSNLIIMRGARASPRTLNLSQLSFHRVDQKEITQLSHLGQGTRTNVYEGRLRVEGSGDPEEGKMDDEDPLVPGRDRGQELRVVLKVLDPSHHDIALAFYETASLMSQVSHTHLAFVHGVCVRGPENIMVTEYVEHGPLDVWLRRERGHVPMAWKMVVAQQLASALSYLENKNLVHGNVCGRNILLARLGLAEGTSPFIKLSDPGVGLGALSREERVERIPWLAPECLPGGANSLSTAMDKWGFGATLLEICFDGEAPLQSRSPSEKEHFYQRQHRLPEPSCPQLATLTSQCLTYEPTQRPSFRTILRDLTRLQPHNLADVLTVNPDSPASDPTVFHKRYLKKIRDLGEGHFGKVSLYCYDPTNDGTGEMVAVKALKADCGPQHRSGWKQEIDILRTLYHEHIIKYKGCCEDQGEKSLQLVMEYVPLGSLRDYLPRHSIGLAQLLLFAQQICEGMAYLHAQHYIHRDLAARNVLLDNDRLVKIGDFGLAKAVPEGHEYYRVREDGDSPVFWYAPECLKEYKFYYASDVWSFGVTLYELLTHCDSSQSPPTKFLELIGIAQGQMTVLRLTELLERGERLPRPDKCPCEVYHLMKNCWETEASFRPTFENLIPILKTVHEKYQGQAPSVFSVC
Sequence of JAK1 kinase activity on STAT3 in TF1 cells (P23458 whole entry): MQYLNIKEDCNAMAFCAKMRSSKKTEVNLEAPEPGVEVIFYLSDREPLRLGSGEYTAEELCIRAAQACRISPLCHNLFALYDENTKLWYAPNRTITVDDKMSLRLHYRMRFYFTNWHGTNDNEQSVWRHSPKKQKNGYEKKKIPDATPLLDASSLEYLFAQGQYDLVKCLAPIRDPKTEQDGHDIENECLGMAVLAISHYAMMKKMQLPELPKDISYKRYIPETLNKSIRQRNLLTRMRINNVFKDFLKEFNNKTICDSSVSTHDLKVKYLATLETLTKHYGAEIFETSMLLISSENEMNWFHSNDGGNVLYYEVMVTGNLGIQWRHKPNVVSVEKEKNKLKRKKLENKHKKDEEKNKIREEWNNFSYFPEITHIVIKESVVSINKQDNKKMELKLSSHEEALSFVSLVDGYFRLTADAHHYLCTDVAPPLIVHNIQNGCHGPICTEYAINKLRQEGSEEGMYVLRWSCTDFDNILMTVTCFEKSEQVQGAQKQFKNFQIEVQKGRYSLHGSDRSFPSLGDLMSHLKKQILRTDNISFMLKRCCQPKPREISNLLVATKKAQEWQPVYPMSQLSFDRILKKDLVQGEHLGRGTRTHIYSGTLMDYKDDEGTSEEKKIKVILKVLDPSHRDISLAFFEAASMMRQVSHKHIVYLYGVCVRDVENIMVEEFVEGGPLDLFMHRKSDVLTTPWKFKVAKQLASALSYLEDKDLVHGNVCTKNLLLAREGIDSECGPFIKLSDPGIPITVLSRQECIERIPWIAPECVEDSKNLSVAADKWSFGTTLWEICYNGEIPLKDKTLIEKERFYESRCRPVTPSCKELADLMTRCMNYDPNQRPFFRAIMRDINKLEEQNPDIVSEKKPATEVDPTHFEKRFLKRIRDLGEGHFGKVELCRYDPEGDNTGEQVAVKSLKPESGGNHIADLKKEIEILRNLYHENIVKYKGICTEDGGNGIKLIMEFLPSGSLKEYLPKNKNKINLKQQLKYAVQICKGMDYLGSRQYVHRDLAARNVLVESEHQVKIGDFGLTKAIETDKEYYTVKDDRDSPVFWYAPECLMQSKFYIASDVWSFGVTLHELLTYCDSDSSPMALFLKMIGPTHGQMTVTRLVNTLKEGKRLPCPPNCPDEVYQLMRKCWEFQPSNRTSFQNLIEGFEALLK
Sequence of JAK2 kinase activity on STAT5 in TF1 cells (O60674 whole entry): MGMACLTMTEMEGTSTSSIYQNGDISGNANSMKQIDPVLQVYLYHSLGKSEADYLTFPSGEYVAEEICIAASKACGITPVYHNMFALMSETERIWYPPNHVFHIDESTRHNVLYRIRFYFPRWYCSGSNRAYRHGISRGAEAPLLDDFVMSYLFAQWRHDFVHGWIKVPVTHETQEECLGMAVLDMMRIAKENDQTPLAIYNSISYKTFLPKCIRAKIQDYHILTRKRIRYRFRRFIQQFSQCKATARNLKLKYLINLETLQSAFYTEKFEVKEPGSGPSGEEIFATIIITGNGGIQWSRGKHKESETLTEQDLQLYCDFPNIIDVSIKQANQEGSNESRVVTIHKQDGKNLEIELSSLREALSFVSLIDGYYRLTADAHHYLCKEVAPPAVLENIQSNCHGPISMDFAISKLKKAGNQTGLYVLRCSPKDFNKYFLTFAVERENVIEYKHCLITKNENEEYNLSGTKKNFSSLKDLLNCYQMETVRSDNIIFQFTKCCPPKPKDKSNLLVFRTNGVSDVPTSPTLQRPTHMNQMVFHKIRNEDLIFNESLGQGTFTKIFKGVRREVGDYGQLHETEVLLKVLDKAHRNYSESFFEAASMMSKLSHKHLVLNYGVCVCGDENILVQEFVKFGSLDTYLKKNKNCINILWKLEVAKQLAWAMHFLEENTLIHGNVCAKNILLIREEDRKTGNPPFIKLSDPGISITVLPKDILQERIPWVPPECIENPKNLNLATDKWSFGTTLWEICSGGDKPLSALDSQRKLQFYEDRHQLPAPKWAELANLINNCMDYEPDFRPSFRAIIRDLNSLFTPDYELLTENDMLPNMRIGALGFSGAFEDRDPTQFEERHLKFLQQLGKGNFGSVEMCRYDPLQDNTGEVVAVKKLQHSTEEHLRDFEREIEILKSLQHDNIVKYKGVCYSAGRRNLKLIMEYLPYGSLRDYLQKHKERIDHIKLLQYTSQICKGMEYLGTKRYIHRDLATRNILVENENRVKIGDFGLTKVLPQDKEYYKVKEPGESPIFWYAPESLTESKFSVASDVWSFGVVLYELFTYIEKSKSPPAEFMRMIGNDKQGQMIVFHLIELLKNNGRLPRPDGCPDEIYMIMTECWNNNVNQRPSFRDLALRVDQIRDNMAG
T4 sequence (P52333 822-1111 limits assumed): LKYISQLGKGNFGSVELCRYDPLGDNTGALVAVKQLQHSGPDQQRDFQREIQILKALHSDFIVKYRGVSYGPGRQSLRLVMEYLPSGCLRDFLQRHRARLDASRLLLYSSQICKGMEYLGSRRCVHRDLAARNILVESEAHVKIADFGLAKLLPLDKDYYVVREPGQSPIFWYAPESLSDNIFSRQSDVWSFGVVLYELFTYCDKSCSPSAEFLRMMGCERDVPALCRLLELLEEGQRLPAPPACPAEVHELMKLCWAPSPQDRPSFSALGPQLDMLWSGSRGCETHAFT
T1 sequence (P23458 875-1153 limits assumed): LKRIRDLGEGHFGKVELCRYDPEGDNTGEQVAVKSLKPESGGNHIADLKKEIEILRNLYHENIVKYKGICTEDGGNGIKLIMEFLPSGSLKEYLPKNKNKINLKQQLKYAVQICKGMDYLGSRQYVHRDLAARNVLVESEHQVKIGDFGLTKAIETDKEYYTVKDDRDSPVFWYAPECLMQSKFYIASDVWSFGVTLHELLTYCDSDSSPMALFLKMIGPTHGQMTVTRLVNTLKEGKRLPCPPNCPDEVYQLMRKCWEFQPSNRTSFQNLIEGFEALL
T2 sequence (O60674 849-1124 limits assumed): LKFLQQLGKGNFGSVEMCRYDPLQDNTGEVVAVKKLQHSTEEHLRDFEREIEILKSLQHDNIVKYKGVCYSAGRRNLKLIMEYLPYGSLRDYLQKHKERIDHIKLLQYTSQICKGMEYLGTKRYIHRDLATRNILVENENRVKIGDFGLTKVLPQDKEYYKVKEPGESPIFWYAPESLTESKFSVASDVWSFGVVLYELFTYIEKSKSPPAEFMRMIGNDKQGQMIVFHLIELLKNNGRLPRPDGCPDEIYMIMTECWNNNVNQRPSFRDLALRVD

For `C[C@@H]1CN(c2nc(-c3ccc(=O)n(C)c3)cn3nccc23)C(=O)[C@]1(C#N)C1CC1` [Example 245, (3R,4S)-3-cyclopropyl-4-methyl-1-(6-(1-methyl-6-oxo-1,6-dihydropyridin-3-yl)pyrazolo[1,5-a]pyrazin-4-yl)-2-oxopyrrolidine-3-carbonitrile], the IC50 was less than 100 nM in test [1]; 100 to 1000 nM in test [2]; 50 to 100 nM in test [3]; 100 to 1000 nM in test [4]; less than 5 nM in test [5]; 1000 to 5000 nM in test [6]. Moreover, the IC50 in test [7] was less than 100 nM.
With `C[C@@H]1CN(c2nc(-c3cnn(C4COC4)c3)cn3nccc23)C(=O)[C@]1(C#N)C1CC1` [Example 251, (3R,4S)-3-cyclopropyl-4-methyl-1-(6-(1-(oxetan-3-yl)-1H-pyrazol-4-yl)pyrazolo[1,5-a]pyrazin-4-yl)-2-oxopyrrolidine-3-carbonitrile], the IC50 in test [1] was less than 100 nM; in test [2], less than 100 nM; in test [3] it was 20 to 50 nM; in test [4] it was 100 to 1000 nM; in test [5] it was less than 5 nM; in test [6], 100 to 1000 nM. Besides, the IC50 in test [7] was less than 100 nM.
As for `CNC(=O)c1cc(-c2cn3nccc3c(N3C[C@@H](C)[C@@](C#N)(C4CC4)C3=O)n2)ccn1` [Example 252, 4-(4-((3R,4S)-3-cyano-3-cyclopropyl-4-methyl-2-oxopyrrolidin-1-yl)pyrazolo[1,5-a]pyrazin-6-yl)-N-methylpicolinamide trifluoroacetate], the IC50 is 100 to 1000 nM in test [1]; 100 to 1000 nM in test [2]; more than 100 nM in test [3]; 1000 to 5000 nM in test [4]; 5 to 20 nM in test [5]; more than 10000 nM in test [6]. The IC50 in test [7] was 100 to 1000 nM.
Consider `C[C@@H]1CN(c2nc(-c3ccc(S(C)(=O)=O)nc3)cn3nccc23)C(=O)[C@]1(C#N)C1CC1` [Example 257, (3R,4S)-3-cyclopropyl-4-methyl-1-(6-(6-(methylsulfonyl)pyridin-3-yl)pyrazolo[1,5-a]pyrazin-4-yl)-2-oxopyrrolidine-3-carbonitrile trifluoroacetate], for which the IC50 in test [1] is less than 100 nM; in test [2], 100 to 1000 nM; in test [3], more than 100 nM; in test [4] it was 1000 to 5000 nM; in test [5], 5 to 20 nM; in test [6] it was 5000 to 10000 nM. Moreover, the IC50 in test [7] is 100 to 1000 nM.
Turning to `C[C@@H]1CN(c2nc(-c3cncc(O)c3)cn3nccc23)C(=O)[C@]1(C#N)C1CC1` [Example 258, (3R,4S)-3-cyclopropyl-1-(6-(5-hydroxypyridin-3-yl)pyrazolo[1,5-a]pyrazin-4-yl)-4-methyl-2-oxopyrrolidine-3-carbonitrile trifluoroacetate], the half-maximal inhibitory concentration (IC50) in test [1] was less than 100 nM; in test [2] it was 100 to 1000 nM; in test [3] it was more than 100 nM; in test [4], 1000 to 5000 nM; in test [5], 5 to 20 nM; in test [6] it was more than 10000 nM. The half-maximal inhibitory concentration (IC50) in test [7] is less than 100 nM.
Regarding `C[C@@H]1CN(c2nc(-c3ccc4cnn(C)c4c3)cn3nccc23)C(=O)[C@]1(C#N)C1CC1` [Example 259, (3R,4S)-3-cyclopropyl-4-methyl-1-(6-(1-methyl-1H-indazol-6-yl)pyrazolo[1,5-a]pyrazin-4-yl)-2-oxopyrrolidine-3-carbonitrile trifluoroacetate], the concentration for half-maximal inhibition (IC50) in test [1] is less than 100 nM; in test [2], less than 100 nM; in test [3] it was 5 to 20 nM; in test [4], less than 100 nM; in test [5] it was less than 5 nM; in test [6], 100 to 1000 nM. The IC50 in test [7] is less than 100 nM.
